What was measured:
Caspase-6 [1] = target: T1, Caspase-6 (Homo sapiens, UniProt P55212); assay: Inhibitory concentration against caspase-6 in neuronal precursor (NT2) cells
T1 sequence (P55212 whole entry): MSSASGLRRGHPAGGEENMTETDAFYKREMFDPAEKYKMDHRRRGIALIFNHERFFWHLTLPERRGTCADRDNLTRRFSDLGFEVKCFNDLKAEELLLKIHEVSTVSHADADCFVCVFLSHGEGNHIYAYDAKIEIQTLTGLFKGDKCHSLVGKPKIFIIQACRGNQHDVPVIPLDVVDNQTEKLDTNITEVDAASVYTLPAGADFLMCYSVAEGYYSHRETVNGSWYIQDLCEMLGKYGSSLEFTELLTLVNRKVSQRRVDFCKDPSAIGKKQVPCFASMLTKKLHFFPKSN

Caspase-7 = target: T2, Caspase-7 (Homo sapiens, UniProt P55210); assay: Inhibitory concentration against recombinant human caspase-7 […]
T2 sequence (P55210 whole entry): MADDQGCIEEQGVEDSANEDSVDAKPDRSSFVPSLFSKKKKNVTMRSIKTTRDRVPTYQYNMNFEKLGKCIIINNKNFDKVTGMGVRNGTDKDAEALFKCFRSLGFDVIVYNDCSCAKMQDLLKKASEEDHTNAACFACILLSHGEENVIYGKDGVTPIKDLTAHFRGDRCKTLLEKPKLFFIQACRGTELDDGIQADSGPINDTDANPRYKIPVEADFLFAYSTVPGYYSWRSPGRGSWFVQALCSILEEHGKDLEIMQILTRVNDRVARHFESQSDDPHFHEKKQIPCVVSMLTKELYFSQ

[2] = Inhibitory concentration against cycloheximide induced cell death in human white blood cells in the absence of plasma proteins; assay type: functional, cell-based
Caspase-3 = target: T3, Caspase-3 (Homo sapiens, UniProt P42574); assay: Inhibitory concentration against recombinant human caspase-3 in neuronal precursor (NT2) cells
T3 sequence (P42574 whole entry): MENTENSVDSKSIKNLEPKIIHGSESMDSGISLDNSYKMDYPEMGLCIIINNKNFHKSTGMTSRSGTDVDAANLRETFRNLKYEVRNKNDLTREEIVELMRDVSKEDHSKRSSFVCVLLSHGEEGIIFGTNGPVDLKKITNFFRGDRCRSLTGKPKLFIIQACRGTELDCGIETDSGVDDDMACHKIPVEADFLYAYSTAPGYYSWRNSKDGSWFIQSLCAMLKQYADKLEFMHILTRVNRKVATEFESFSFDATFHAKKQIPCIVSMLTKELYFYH

Caspase-5 [3] = target: T4, Caspase-5 (Homo sapiens, UniProt P51878); assay: Inhibitory concentration against human caspase-5 in neuronal precursor (NT2) cells
T4 sequence (P51878 whole entry): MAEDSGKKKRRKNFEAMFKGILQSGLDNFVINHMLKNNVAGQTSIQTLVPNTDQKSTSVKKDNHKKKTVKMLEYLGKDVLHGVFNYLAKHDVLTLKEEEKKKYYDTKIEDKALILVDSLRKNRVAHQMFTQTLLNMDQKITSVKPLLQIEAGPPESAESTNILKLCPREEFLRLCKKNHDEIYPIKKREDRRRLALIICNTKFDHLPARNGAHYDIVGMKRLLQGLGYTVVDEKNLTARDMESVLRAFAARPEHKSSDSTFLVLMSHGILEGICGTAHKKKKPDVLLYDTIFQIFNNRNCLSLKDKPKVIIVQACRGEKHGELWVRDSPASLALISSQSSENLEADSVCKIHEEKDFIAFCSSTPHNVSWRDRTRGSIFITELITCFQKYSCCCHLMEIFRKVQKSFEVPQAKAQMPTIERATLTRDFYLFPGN

[4] = Inhibitory concentration against etoposide induced apoptosis in mice cerebellar granule neurons; assay type: functional; conditions: Mus musculus
[5] = Inhibitory concentration against etoposide induced apoptosis in rat cortical neurons; assay type: functional
Caspase-1 = target: T5, Caspase-1 (Homo sapiens, UniProt P29466); assay: Inhibitory concentration against recombinant human caspase-1 in neuronal precursor (NT2) cells
T5 sequence (P29466 whole entry): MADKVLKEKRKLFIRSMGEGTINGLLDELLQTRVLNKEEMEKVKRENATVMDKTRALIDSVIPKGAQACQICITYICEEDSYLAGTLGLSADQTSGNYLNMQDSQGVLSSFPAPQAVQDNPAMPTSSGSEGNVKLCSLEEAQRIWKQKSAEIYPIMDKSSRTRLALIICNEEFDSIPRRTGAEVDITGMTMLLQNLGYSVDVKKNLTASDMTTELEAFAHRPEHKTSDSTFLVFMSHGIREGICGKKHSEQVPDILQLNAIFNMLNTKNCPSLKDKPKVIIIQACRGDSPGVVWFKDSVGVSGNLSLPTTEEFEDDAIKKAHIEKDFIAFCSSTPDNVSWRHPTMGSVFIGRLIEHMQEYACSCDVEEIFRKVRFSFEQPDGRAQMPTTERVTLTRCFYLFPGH

Caspase-4 [6] = target: T6, Caspase-4 (Homo sapiens, UniProt P49662); assay: Inhibitory concentration against human caspase-4 in neuronal precursor (NT2) cells
T6 sequence (P49662 whole entry): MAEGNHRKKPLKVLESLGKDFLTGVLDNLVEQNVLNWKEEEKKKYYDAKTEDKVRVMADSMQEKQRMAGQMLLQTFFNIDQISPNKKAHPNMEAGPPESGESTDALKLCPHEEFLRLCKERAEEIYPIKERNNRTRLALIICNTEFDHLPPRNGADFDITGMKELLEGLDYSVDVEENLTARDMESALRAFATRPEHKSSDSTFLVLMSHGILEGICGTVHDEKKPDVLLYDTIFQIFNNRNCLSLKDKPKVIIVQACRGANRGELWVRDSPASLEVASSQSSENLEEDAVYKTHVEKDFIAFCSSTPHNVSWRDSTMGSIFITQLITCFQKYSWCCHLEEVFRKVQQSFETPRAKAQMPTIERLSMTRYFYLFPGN

NT2 = assay: Inhibitory concentration against camptothecin induced apoptosis in neuronal precursor (NT2) whole cells; assay type: functional, cell-based; conditions: Homo sapiens
Caspase-2 [7] = target: T7, Caspase-2 (Homo sapiens, UniProt P42575); assay: Inhibitory concentration against caspase-2 in neuronal precursor (NT2) cells
T7 sequence (P42575 whole entry): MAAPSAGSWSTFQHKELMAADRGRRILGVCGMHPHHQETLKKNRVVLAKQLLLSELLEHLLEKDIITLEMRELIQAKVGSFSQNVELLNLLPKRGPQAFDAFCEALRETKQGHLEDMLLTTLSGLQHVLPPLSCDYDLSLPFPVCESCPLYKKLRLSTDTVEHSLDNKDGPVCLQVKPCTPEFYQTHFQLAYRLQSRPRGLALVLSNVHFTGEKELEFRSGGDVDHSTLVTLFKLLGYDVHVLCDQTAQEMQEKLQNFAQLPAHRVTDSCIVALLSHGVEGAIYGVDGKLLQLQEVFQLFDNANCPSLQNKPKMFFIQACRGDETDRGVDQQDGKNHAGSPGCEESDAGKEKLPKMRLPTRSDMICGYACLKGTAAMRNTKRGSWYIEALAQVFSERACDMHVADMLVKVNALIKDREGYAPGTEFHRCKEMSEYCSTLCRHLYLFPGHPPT

Caspase-8 = Caspase-8 (Homo sapiens, UniProt Q14790); assay: Inhibitory concentration against recombinant human caspase-8 […]
Caspase-10 [8] = target: T8, Caspase-10 (Homo sapiens, UniProt Q92851); assay: Inhibitory concentration against caspase-10 in neuronal precursor (NT2) cells
T8 sequence (Q92851 whole entry): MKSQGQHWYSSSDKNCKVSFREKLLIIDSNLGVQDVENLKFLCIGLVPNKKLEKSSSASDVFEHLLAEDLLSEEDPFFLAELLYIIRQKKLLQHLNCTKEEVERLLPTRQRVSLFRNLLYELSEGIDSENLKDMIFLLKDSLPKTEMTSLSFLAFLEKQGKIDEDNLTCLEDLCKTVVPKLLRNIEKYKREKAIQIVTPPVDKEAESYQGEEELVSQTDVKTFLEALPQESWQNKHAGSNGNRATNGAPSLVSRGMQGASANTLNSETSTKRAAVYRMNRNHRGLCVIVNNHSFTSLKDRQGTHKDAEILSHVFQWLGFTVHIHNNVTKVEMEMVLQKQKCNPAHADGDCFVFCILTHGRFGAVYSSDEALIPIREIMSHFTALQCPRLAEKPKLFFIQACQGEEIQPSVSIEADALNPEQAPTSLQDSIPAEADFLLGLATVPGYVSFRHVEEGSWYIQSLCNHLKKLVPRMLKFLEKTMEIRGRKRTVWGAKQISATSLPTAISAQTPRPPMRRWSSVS

[9] = Inhibitory concentration against cycloheximide induced cell death in human white blood cells in the presence of plasma proteins; assay type: functional, cell-based
Caspase-6 [10] = target: T1, Caspase-6; assay: Inhibitory concentration against casp-6 in neuronal precursor (NT2) cells
Caspase-4 [11] = target: T6, Caspase-4; assay: Inhibitory concentration against casp-4 in neuronal precursor (NT2) cells
Caspase-5 [12] = target: T4, Caspase-5; assay: Inhibitory concentration against casp-5 in neuronal precursor (NT2) cells
Caspase-10 [13] = target: T8, Caspase-10; assay: Inhibitory concentration against casp-10 in neuronal precursor (NT2) cells
Caspase-2 [14] = target: T7, Caspase-2; assay: Inhibitory concentration against casp-2 in neuronal precursor (NT2) cells

Sequence of Caspase-8 (Q14790 217-374 limits assumed): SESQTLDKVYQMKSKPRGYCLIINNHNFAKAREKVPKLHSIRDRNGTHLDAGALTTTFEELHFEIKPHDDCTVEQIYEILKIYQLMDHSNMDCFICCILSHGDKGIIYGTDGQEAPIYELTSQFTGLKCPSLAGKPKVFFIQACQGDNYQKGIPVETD
Sequence of Caspase-8 (Q14790 385-479 limits assumed): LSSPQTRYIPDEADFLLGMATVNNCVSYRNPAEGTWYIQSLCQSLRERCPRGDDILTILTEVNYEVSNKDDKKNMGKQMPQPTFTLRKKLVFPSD

IC50 (Caspase-6 [1]) [nM] | IC50 (Caspase-7) [nM] | Ki (Caspase-3) [nM] | IC50 (Caspase-5 [3]) [nM] | IC50 [4] [nM] | IC50 [5] [nM] | IC50 (Caspase-1) [nM] | IC50 (Caspase-4 [6]) [nM] | IC50 (NT2) [nM] | IC50 (Caspase-2 [7]) [nM] | IC50 (Caspase-8) [nM] | IC50 (Caspase-10 [8]) [nM] | IC50 (Caspase-6 [10]) [nM] | IC50 (Caspase-4 [11]) [nM] | IC50 (Caspase-5 [12]) [nM] | IC50 (Caspase-10 [13]) [nM] | IC50 (Caspase-2 [14]) [nM] | SMILES | IC50 [2] [nM] | IC50 [9] [nM]
1700 | 13 | 5 | 200 | 50 | 90 | 50 | 300 | 21 | > 10000 | 2100 | 17700 | – | – | – | – | – | CCCCCCN(C)CC(=O)C(CC(=O)O)NC(=O)C(CC)n1cc(C(C)(C)C)nc(NCc2nonc2C)c1=O (stereo not drawn) | 50 | 1200
– | 90 | 1.4 | – | 60 | 60 | 110 | – | 27 | – | 4030 | – | 3440 | 500 | 810 | 29500 | > 10000 | CCCCCN(C)CC(=O)C(CC(=O)O)NC(=O)C(CC)n1cc(C(C)(C)C)nc(NCc2nonc2C)c1=O (stereo not drawn) | 40 | 700
